Experimental data taken from ChEMBL document CHEMBL5316327, “Design and Synthesis of Orally Active Quinolyl Pyrazinamides as Sigma 2 Receptor Ligands for the Treatment of Pancreatic Cancer” (J Med Chem, 2023).

How the values were obtained:
[1] = target: 5-hydroxytryptamine receptor 2B (Homo sapiens, UniProt P41595); test: Binding affinity to 5-HT2B receptor (unknown origin) assessed as inhibition constant
[2] = target: 5-hydroxytryptamine receptor 1D (Homo sapiens, UniProt P28221); test: Binding affinity to 5-HT1D receptor (unknown origin) assessed as inhibition constant
[3] = Metabolic stability in mouse liver microsomes assessed as half life at 10 uM measured upto 60 mins in presence of NADPH by LC-MS/MS analysis; type: ADME, Microsome; details: 1 h
[4] = target: Muscarinic acetylcholine receptor M3 (Homo sapiens, UniProt P20309); test: Binding affinity to M3 receptor (unknown origin) assessed as inhibition constant
[5] = target: Histamine H2 receptor (Homo sapiens, UniProt P25021); test: Binding affinity to histamine H2 receptor (unknown origin) assessed as inhibition constant
[6] = target: 5-hydroxytryptamine receptor 1A (Homo sapiens, UniProt P08908); test: Binding affinity to 5-HT1A receptor (unknown origin) assessed as inhibition constant
[7] = Metabolic stability in human liver microsomes assessed as half life at 10 uM measured upto 60 mins in presence of NADPH by LC-MS/MS analysis; type: ADME, Microsome; details: liver microsomes
[8] = target: D(1B) dopamine receptor (Homo sapiens, UniProt P21918); test: Binding affinity to dopamine D5 receptor (unknown origin) assessed as inhibition constant
[9] = target: Alpha-2A adrenergic receptor (Homo sapiens, UniProt P08913); test: Binding affinity to alpha2A receptor (unknown origin) assessed as inhibition constant
[10] = target: Kappa-type opioid receptor (Homo sapiens, UniProt P41145); test: Binding affinity to KOR receptor (unknown origin) assessed as inhibition constant
[11] = target: D(1A) dopamine receptor (Homo sapiens, UniProt P21728); test: Binding affinity to dopamine D1 receptor (unknown origin) assessed as inhibition constant
[12] = target: Sigma non-opioid intracellular receptor 1 (Homo sapiens, UniProt Q99720); test: Displacement of [3H](+)-pentazocine from human sigma 1 receptor transfected in human HEK293T cells assessed as inhibition constant by radioligand competition binding assay; type: cell-based
[13] = target: Muscarinic acetylcholine receptor M2 (Homo sapiens, UniProt P08172); test: Binding affinity to M2 receptor (unknown origin) assessed as inhibition constant
[14] = target: Muscarinic acetylcholine receptor M5 (Homo sapiens, UniProt P08912); test: Binding affinity to M5 receptor (unknown origin) assessed as inhibition constant
[15] = target: Sigma intracellular receptor 2 (Homo sapiens, UniProt Q5BJF2); test: Displacement of [3H][…]ditolylguanidine from human sigma 2 receptor transfected in human HEK293T cells assessed as inhibition constant by radioligand competition binding assay; type: cell-based
[16] = target: Alpha-2B adrenergic receptor (Homo sapiens, UniProt P18089); test: Binding affinity to alpha2B receptor (unknown origin) assessed as inhibition constant
[17] = target: Histamine H3 receptor (Homo sapiens, UniProt Q9Y5N1); test: Binding affinity to histamine H3 receptor (unknown origin) assessed as inhibition constant
[18] = target: Muscarinic acetylcholine receptor M1 (Homo sapiens, UniProt P11229); test: Binding affinity to M1 receptor (unknown origin) assessed as inhibition constant
[19] = target: D(3) dopamine receptor (Homo sapiens, UniProt P35462); test: Binding affinity to dopamine D3 receptor (unknown origin) assessed as inhibition constant
[20] = target: Muscarinic acetylcholine receptor M4 (Homo sapiens, UniProt P08173); test: Binding affinity to M4 receptor (unknown origin) assessed as inhibition constant
Chain of Muscarinic acetylcholine receptor M4 (P08173 whole entry): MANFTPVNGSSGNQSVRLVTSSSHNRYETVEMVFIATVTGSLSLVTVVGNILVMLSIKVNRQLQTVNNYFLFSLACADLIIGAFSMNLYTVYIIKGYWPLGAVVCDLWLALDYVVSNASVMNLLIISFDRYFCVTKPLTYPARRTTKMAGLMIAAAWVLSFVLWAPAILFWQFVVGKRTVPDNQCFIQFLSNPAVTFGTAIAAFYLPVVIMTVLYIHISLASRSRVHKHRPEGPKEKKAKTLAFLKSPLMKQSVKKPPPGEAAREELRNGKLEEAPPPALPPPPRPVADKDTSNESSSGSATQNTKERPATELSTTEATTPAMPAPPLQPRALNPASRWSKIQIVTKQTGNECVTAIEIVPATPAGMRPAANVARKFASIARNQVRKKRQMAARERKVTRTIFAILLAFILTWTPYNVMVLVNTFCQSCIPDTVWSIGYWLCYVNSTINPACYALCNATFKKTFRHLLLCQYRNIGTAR

Chain of Kappa-type opioid receptor (P41145 whole entry): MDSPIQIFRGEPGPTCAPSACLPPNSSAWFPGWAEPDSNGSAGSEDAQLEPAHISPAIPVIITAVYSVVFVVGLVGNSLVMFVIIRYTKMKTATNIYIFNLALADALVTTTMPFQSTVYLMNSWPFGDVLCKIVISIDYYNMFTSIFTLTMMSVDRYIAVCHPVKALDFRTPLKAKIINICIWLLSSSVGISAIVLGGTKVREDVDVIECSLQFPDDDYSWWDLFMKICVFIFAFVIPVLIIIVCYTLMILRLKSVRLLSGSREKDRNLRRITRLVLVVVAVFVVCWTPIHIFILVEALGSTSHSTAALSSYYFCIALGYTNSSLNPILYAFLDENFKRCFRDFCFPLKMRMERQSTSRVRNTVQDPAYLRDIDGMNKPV
Chain of Muscarinic acetylcholine receptor M2 (P08172 whole entry): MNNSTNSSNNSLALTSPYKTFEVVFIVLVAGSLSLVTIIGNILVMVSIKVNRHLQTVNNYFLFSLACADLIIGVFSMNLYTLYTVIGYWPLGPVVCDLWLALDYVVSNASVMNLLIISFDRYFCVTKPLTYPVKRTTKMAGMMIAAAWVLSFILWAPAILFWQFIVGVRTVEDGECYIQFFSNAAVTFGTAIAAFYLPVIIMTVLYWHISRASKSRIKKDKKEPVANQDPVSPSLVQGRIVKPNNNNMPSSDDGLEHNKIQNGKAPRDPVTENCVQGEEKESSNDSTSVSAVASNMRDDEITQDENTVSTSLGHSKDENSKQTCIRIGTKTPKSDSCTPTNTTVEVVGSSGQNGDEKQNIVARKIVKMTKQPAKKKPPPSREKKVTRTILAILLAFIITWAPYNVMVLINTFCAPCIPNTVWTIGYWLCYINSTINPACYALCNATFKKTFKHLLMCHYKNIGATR
Chain of Muscarinic acetylcholine receptor M5 (P08912 whole entry): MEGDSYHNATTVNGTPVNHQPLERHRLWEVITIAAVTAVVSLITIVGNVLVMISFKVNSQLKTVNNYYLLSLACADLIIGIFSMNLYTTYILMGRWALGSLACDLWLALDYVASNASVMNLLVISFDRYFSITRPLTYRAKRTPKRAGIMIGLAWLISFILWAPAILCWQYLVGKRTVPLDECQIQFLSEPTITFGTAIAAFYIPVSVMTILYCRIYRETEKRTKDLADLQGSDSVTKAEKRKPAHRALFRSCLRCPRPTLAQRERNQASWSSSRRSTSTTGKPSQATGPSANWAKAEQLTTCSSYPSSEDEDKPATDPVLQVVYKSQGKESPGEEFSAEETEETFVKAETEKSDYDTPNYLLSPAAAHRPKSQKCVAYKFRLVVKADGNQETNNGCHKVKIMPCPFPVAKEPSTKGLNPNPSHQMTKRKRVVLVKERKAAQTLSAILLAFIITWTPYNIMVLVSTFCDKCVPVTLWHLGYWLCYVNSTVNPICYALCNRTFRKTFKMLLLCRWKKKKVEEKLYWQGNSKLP
Chain of Histamine H3 receptor (Q9Y5N1 whole entry): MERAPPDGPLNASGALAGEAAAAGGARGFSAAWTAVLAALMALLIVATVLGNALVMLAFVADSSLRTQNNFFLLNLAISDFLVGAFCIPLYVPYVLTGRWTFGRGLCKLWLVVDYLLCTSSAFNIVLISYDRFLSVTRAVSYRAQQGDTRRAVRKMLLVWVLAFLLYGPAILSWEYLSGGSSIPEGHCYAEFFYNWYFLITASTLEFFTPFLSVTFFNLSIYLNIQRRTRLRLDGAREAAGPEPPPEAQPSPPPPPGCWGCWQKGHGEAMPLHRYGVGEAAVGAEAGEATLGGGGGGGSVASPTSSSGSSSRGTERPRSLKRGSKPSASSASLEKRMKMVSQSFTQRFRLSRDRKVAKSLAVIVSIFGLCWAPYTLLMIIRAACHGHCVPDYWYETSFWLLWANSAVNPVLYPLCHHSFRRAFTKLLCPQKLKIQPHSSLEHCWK
Chain of Sigma non-opioid intracellular receptor 1 (Q99720 whole entry): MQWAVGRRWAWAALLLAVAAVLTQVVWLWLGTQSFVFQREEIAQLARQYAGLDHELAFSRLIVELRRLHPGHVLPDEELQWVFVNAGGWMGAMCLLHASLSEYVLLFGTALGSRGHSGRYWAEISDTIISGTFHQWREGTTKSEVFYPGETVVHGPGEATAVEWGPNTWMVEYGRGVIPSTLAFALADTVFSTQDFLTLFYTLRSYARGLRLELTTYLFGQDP
Chain of Alpha-2B adrenergic receptor (P18089 whole entry): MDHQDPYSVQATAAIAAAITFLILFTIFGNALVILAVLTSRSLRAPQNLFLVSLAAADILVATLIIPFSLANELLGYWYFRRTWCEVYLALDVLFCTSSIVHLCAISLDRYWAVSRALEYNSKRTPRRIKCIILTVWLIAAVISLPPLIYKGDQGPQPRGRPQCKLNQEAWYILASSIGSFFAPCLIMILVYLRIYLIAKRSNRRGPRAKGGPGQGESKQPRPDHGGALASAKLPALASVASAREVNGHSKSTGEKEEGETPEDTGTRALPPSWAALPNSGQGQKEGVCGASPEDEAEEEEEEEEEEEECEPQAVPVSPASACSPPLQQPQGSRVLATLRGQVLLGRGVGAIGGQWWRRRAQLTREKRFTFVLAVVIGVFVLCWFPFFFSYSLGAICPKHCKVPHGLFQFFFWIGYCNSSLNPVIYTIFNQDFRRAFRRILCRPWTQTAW
Chain of Alpha-2A adrenergic receptor (P08913 whole entry): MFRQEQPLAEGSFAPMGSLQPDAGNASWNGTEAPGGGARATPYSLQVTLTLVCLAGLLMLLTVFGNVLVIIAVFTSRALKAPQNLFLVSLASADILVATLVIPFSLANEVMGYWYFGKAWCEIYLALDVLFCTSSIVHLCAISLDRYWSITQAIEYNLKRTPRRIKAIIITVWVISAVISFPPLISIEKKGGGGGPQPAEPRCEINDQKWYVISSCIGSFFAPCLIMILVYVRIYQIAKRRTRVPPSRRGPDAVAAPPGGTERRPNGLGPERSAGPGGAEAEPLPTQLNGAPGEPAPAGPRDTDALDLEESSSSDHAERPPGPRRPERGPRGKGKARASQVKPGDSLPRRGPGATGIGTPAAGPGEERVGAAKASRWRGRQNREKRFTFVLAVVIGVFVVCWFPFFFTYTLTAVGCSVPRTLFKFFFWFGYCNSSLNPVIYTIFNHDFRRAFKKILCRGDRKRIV
Chain of D(1A) dopamine receptor (P21728 whole entry): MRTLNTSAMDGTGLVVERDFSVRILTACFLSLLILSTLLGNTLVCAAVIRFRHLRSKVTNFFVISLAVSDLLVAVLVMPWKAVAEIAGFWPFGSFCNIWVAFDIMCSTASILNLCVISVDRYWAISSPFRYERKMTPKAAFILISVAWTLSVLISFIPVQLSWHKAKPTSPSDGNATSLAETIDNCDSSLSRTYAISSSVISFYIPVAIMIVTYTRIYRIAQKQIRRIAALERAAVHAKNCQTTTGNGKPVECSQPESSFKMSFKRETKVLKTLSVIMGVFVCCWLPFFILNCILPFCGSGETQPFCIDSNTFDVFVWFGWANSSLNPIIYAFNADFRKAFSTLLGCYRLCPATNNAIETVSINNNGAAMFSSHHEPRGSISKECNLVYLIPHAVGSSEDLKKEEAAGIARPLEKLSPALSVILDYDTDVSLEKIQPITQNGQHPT
Chain of Muscarinic acetylcholine receptor M1 (P11229 whole entry): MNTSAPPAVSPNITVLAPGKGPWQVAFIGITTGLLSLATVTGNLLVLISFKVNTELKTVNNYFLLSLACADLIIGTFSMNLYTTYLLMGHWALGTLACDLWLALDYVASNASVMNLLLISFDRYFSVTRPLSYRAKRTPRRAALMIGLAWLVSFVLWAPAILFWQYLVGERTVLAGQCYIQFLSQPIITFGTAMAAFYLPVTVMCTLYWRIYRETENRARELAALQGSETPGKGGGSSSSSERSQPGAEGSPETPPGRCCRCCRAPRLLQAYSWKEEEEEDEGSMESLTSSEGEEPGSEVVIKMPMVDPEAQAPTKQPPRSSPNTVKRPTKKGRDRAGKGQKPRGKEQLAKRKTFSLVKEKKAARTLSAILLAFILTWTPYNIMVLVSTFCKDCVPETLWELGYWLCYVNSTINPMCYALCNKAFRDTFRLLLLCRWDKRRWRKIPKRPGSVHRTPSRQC
Chain of D(1B) dopamine receptor (P21918 whole entry): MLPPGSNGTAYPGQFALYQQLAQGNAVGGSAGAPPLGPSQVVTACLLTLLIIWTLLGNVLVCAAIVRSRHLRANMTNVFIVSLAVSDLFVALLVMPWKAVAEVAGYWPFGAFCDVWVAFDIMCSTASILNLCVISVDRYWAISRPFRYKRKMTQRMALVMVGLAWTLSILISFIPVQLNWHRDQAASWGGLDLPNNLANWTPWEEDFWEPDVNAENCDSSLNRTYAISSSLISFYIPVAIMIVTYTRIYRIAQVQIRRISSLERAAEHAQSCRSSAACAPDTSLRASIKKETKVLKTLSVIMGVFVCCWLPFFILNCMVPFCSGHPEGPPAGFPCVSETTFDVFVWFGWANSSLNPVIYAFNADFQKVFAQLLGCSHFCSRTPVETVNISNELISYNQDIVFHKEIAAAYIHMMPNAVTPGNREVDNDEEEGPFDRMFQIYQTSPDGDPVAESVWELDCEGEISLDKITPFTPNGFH

Ki [1]: > 10000 nM | Ki [2]: 99 nM | t1/2 [3]: 45.3 min | Ki [4]: 1350 nM | Ki [5]: 750 nM | Ki [6]: 743 nM | half-life at 10 µM [7]: > 60 min | Ki [8]: 2830 nM | Ki [9]: 673 nM | Ki [10]: 713 nM | Ki [11]: 5470 nM | Ki [12]: 165 nM | Ki [13]: 386 nM | Ki [14]: 373 nM | Ki [15]: 10 nM | Ki [16]: 2010 nM | Ki [17]: 1200 nM | Ki [18]: 717 nM | Ki [19]: 726 nM | Ki [20]: 279 nM
Compound: CCN(CC)CCCC(C)Nc1cnc(C(=O)Nc2cc(F)cc3cccnc23)cn1 (stereo not given)
